Experiments:
long-term stability test = format: physicochemical; details: 25° C.±2° C., relative humidity 60%±10%
Description: (§1) Stability tests were performed on the samples of Examples 1, 2, 3, 4 and 5. […] Please refer to the results of the acceleration test (40° C.±2° C., relative humidity 75%±5%) of Table 1 and the results of the long-term stability test (25° C.±2° C., relative humidity 60%±10%) of Table 2.

[1] = acceleration test (stability); format: physicochemical; details: 40° C.±2° C., relative humidity 75%±5%
Description: as §1

## (S)-2-(4-fluorophenyl)-4-(piperidine-3-aminomethyl)thieno[2,3-d]pyridazine-7-carboxamide hydrochloride [Example 110601-1]
long-term stability test; 0 month
  Crystal form: unchanged
  ImpurityB(%): 0.00%
long-term stability test; 0 month, hydrochloride
  Content (calculated by dried product )(%): 99.1%
  Enantiomers (%): 0.11%
  ImpurityA(%): 0.36%
  ImpurityC(%): 0.03%
  Loss on drying (%): 7.1%
  Single largest impurity (%): 0.02%
  Total relevant substances (%): 0.47%
  appearance: yellow crystalline powder
long-term stability test; 3 months
  Crystal form: unchanged
  ImpurityB(%): 0.00%
  ImpurityC(%): 0.02%
long-term stability test; 3 months, hydrochloride
  Content (calculated by dried product )(%): 99.9%
  Enantiomers (%): 0.11%
  ImpurityA(%): 0.35%
  Loss on drying (%): 7.0%
  Single largest impurity (%): 0.02%
  Total relevant substances (%): 0.45%
  appearance: yellow crystalline powder
long-term stability test; 6 months
  Crystal form: unchanged
  ImpurityB(%): 0.00%
long-term stability test; 6 months, hydrochloride
  Content (calculated by dried product )(%): 99.8%
  Enantiomers (%): 0.08%
  ImpurityA(%): 0.34%
  ImpurityC(%): 0.03%
  Loss on drying (%): 7.0%
  Single largest impurity (%): 0.02%
  Total relevant substances (%): 0.41%
  appearance: yellow crystalline powder
long-term stability test; 9 months
  Crystal form: unchanged
  ImpurityC(%): 0.02%
long-term stability test; 9 months, hydrochloride
  Content (calculated by dried product )(%): 99.8%
  Enantiomers (%): 0.08%
  ImpurityA(%): 0.34%
  ImpurityB(%): 0.02%
  Loss on drying (%): 7.0%
  Single largest impurity (%): 0.03%
  Total relevant substances (%): 0.47%
  appearance: yellow crystalline powder
long-term stability test; 12 months
  Crystal form: unchanged
  ImpurityB(%): 0.01%
  Single largest impurity (%): 0.02%
long-term stability test; 12 months, hydrochloride
  Content (calculated by dried product )(%): 99.4%
  Enantiomers (%): 0.1%
  ImpurityA(%): 0.34%
  ImpurityC(%): 0.02%
  Loss on drying (%): 7.1%
  Total relevant substances (%): 0.43%
  appearance: yellow crystalline powder
long-term stability test; 18 months
  Crystal form: unchanged
  ImpurityB(%): 0.00%
  Single largest impurity (%): 0.02%
long-term stability test; 18 months, hydrochloride
  Content (calculated by dried product )(%): 99.5%
  Enantiomers (%): 0.07%
  ImpurityA(%): 0.37%
  ImpurityC(%): 0.04%
  Loss on drying (%): 7.0%
  Total relevant substances (%): 0.45%
  appearance: yellow crystalline powder
long-term stability test; 24 months
  Crystal form: unchanged
  Enantiomers (%): 0.08%
  ImpurityB(%): 0.00%
  ImpurityC(%): 0.02%
  Single largest impurity (%): 0.02%
long-term stability test; 24 months, hydrochloride
  Content (calculated by dried product )(%): 98.3%
  ImpurityA(%): 0.37%
  Loss on drying (%): 7.4%
  Total relevant substances (%): 0.43%
  appearance: yellow crystalline powder
long-term stability test; 36 months
  Crystal form: unchanged
  ImpurityC(%): 0.02%
  Single largest impurity (%): 0.02%
long-term stability test; 36 months, hydrochloride
  Content (calculated by dried product )(%): 99.9%
  Enantiomers (%): 0.07%
  ImpurityA(%): 0.38%
  ImpurityB(%): 0.02%
  Loss on drying (%): 7.3%
  Total relevant substances (%): 0.50%
  appearance: yellow crystalline powder
[1]; 0 month
  (%) Impurity B (%): 0.00%
  Crystal form: unchanged
  appearance: yellow crystalline powder
[1]; 0 month, hydrochloride
  Enantiomer (%): 0.11%
  Impurity A (%): 0.36%
  Impurity C (%): 0.03%
  Loss on drying (%): 7.1%
  Single largest impurity (%): 0.02%
  Total relevant substances (%): 0.47%
  content(%): 99.1%
[1]; 1 month
  Crystal form: unchanged
  Impurity C (%): 0.02%
  appearance: yellow crystalline powder
[1]; 1 month, hydrochloride
  (%) Impurity B (%): 0.00%
  Enantiomer (%): 0.13%
  Impurity A (%): 0.34%
  Loss on drying (%): 7.1%
  Single largest impurity (%): 0.02%
  Total relevant substances (%): 0.46%
  content(%): 100.5%
[1]; 2 months
  Crystal form: unchanged
  appearance: yellow crystalline powder
[1]; 2 months, hydrochloride
  (%) Impurity B (%): 0.00%
  Enantiomer (%): 0.11%
  Impurity A (%): 0.35%
  Impurity C (%): 0.02%
  Loss on drying (%): 7.1%
  Single largest impurity (%): 0.02%
  Total relevant substances (%): 0.44%
  content(%): 100.6%
[1]; 3 months
  (%) Impurity B (%): 0.00%
  Crystal form: unchanged
  Impurity C (%): 0.02%
  appearance: yellow crystalline powder
[1]; 3 months, hydrochloride
  Enantiomer (%): 0.1%
  Impurity A (%): 0.33%
  Loss on drying (%): 7.0%
  Single largest impurity (%): 0.03%
  Total relevant substances (%): 0.44%
  content(%): 99.6%
[1]; 6 months
  (%) Impurity B (%): 0.00%
  Crystal form: unchanged
  Impurity C (%): 0.02%
  appearance: yellow crystalline powder
[1]; 6 months, hydrochloride
  Enantiomer (%): 0.08%
  Impurity A (%): 0.30%
  Loss on drying (%): 7.0%
  Single largest impurity (%): 0.03%
  Total relevant substances (%): 0.41%
  content(%): 99.6%

Source: patent US20230183259A1, “Crystal Form Of Thiofuran Pyridazine Compound, Preparation Method Therefor And Application Thereof” (ZHEJIANG MEDICINE CO., LTD. XINCHANG PHARMACEUTICAL FACTORY, priority 2020, published 2023)
